# Key:
# ΔF508 CFTR [1] = assay: Immunofluorescence localization of CFTR in CFBE290− airway epithelial cells; format: cell-based, human
# Protocol: (§1) CFPAC and CFBE290^− epithelial cells were grown to confluence on 0.45 micron Transwell filter inserts (Corning Costar, Cambridge, Mass.) under the same conditions described for the short circuit current measurements. Prior to immunofluorescence analysis, filter grown cell monolayers were treated for 90 min with 1 μM thapsigargin at 37° C., present in both the apical and basolateral media compartments. The media was then changed to standard Iscove's growth medium or DMEM without thapsigargin, and cells were incubated for 2 or 4 hours at 37° C. Control cells underwent the same media changes but were not subjected to thapsigargin treatment.
# (§2) Following the second incubation, the filter grown monolayers were washed once with phosphate buffered saline supplemented with calcium and magnesium (150 mM NaCl, 10 mM NaPi, pH 7.4, 1 mM MgCl2, 0.1 mM CaCl2), after which they were fixed for 10 minutes in −20° C. 100% methanol. Immunofluorescence labeling was performed using the well characterized 169 and 181 antibodies (gift of W. Guggino, Johns Hopkins University) directed against the R domain and the prenucleotide binding fold of the CFTR protein, respectively (Crawford et al., Proc. Nat. Acad. Sci. 88:9262-9266 (1991)) and a monoclonal antibody directed against the α-subunit of the Na,K-ATPase (Gottardi and Caplan, J. Cell Biol. 121:283-293 (1993)).
# Incubations with primary and rhodamine-conjugated secondary antibodies were performed as previously described (Gottardi and Caplan, Id.). Labeled cells were examined using a Zeiss LSM 410 laser scanning confocal microscope. All images are the product of 8-fold line averaging. Contrast and brightness settings were chosen so that all pixels were in the linear range. […]
# To ensure that the dose of thapsigargin received by the mice was sufficient to rescue ΔF508-CFTR in airway epithelial cells, we examined the effect of nebulized thapsigargin on CFBE290^− cells. […] Filter-grown CFBE290^− cells were exposed to 1 μM nebulized thapsigargin for 3 hours and the distribution of ΔF508-CFTR was evaluated by immunofluorescence.
# [2] = tested on: α1-antitrypsin, null (Hong Kong); assay: Secretion of α1-antitrypsin null (Hong Kong) from stably transfected mouse hepatoma cells, pulse-chase; format: cell-based; conditions: 1 μM thapsigargin for 3 hours during chase
# Protocol: Experiment 2 is repeated using a cell line that expresses a retention mutation for cc1-antitrypsin, such as the secretion-incompetent variant, null (Hong Kong), retained in stably transfected mouse hepatoma cells (J. Biol. Chem. 269:7514-7519 (1994)). Changes in the cell phenotype are assessed by assaying cells for secretion of a 1-antitrypsin (detailed description in J. Biol. Chem. 268:2001-2008 (1993)).
# Briefly, cell monolayers are pulse labeled with [^35S] methionine for 30 minutes, after which the radiolabeled media is removed and replaced with media containing an excess of unlabeled methionine. During the chase period, one set of monolayers is treated with 1 μM thapsigargin for 3 hours, while another set is incubated for 3 hours in drug free media. Secretion of α1-antitrypsin into the media is assessed by immunoprecipitation followed by electrophoresis and autoradiography.
# Results. Cells expressing the secretion-incompetent variant of α1-antitrypsin, null (Hong Kong), are pulse labeled for 30 minutes with [^35S] methionine, after which they were incubated in non-radioactive media for 3 hours in the presence or absence of 1 μM thapsigargin. After this chase incubation, the media is collected and subjected to immunoprecipitation with anti-α1-antitrypsin antibodies. Immunoprecipitates are analyzed by SDS-PAGE followed by autoradiography.
# ΔF508 CFTR [3] = assay: Confocal immunofluorescence localization of CFTR in CFPAC cells; format: cell-based, human
# Protocol: as §1, §2
# Incubations with primary and rhodamine-conjugated secondary antibodies were performed as previously described (Gottardi and Caplan, Id.). Labeled cells were examined using a Zeiss LSM 410 laser scanning confocal microscope. All images are the product of 8-fold line averaging. Contrast and brightness settings were chosen so that all pixels were in the linear range. YZ cross sections were generated using a 0.2 μmotor step.
# CFPAC-1 cells = assay: Short circuit current (Ussing chamber) of CFPAC-1 monolayers after cAMP stimulation; format: cell-based, human; conditions: 1 uM thapsigargin 1.5 hours, 2 hours recovery, 10 uM forskolin and 100 uM IBMX, n=12
# Protocol: The cell line is homozygous for expression of ΔF508 CFTR and has the ion transport properties of CF-affected epithelia. CFPAC-1 cells show epithelial morphology and polarization with apical microvilli.
# CFPAC cells were grown at 370 in 5% CO2 and maintained in Isocove's modified Dulbucco's medium supplemented with 10% fetal calf serum. Both for measurements of short circuit current and for immunofluorescence experiments, these cells were grown on collagen coated permeable supports (Transwell Snapwell filter cups, Corning Costar, Cambridge, Mass.).
# CFPAC-1 or T84 cells were grown on collagen coated permeable supports (Transwell Snapwell filter cups, Corning Costar, Cambridge, Mass.). […]
# Ag—AgCl wires were embedded in 3M KCl agar bridges were used as voltage and current electrodes on each side of the monolayer contained in an Ussing chamber system (World Precision Instruments, WPI). Voltage was clamped using an EC-825 voltage clamp amplifier (Warner Instruments) with a digital current and voltage readout. The transepithelial potential difference (Vlc) is continuously recorded. At 5-minute intervals the Vtc is clamped to 0 and the short circuit current (Isc) was determined. […]
# After cells were mounted in the Ussing chamber electrical parameters were assessed for 20 to 30 minutes (control period). […] During these maneuvers, electrical parameters were continuously monitored.
# SERCA ATPases = conditions: cited from earlier work
# [4] = Toxicity test, thapsigargin in drinking water; format: in vivo, mice; conditions: drinking water with 1 μM thapsigargin over 3 to 7 days
# Protocol: Genetically uniform lab mice were given either normal drinking water (control) or drinking water which contained thapsigargin (1 μM final concentration). The non-control group of mice were given the thapsigargin-treated water over a 3 to 7 day time period.
compound,measurement,setting,value
C/C=C(/C)C(=O)O[C@H]1C(C)=C2[C@H]([C@@H]1OC(=O)CCCCCCC)[C@@](C)(OC(C)=O)C[C@H](OC(=O)CCC)[C@@]1(O)[C@H]2OC(=O)[C@@]1(C)O [thapsigargin],distribution of ΔF508-CFTR,"ΔF508 CFTR [1]; 1 μM nebulized thapsigargin for 3 hours, air-liquid interface",dramatic redistribution of ΔF508-CFTR to the apical plasmalemma
same,ΔF508-CFTR surface delivery,ΔF508 CFTR [1]; agent dissolved in media,present to the same extent at the apical surfaces of cells treated with nebulized or dissolved thapsigargin
same,radiolabeled α1-antitrypsin in the media,[2],Radiolabeled α1-antitrypsin protein is present in the media
same,CFTR staining pattern,"ΔF508 CFTR [3]; 1 μM thapsigargin 90 min, en face and XZ cross section",bright labeling of apical microvilli could be detected in most of the cells
same,thapsigargin effect on ΔF508-CFTR surface appearance with protein synthesis blocked,"ΔF508 CFTR [3]; 10 mm cycloheximide during treatment and chase, cell line not stated, data not shown",did not abrogate the thapsigargin effect
same,CFTR staining pattern,ΔF508 CFTR [3]; 2 hours after 1 μM thapsigargin 90 min,exhibited only apical staining
same,CFTR staining pattern,"ΔF508 CFTR [3]; 4 hours after 1 μM thapsigargin 90 min, data not shown",CFTR staining both at the apical membrane and in the ER
same,thapsigargin-induced delivery of ΔF508-CFTR to the cell surface in BAPTA-preloaded cells,"ΔF508 CFTR [3]; cell line not stated, data not shown",did not inhibit the thapsigargin-induced delivery of ΔF508-CFTR to the cell surface
same,increase in short circuit current after cAMP-stimulation cocktail,CFPAC-1 cells,14.6±6.6%
same,reduction of efficacy as calcium pump inhibitor on loss of the ester groups,SERCA ATPases; Christensen et al.,at least 40 fold
same,potency of SERCA inhibition,SERCA ATPases,subnanomolar
same,"deaths, illnesses or side effects",[4],"no deaths, illnesses or side effects"

# — US8058314B2, “Conductance of improperly folded proteins through the secretory pathway and related methods for treating disease” (Yale University, priority 1999, dated 2011)
